The text below walks through data of patent US20250051346A1 (priority 2021, published 2025).

The target of assay [1] is T1, 5-HT2A (Homo sapiens, UniProt P28223). As to the kind of experiment: Serotonin 5-HT2A in vitro cellular IPOne antagonism assay. Conditions: CHO-K1 cells; reference agonist a-Me-5HT. Also on record: host or cells: CHO-K1. In kind it is cell-based. As for the experimental part: Serotonin 5-HT2A In Vitro Cellular IPOne Antagonism Assay. The 5-HT2A IPOne HTRF assay was performed at Epics Therapeutics S.A. (Belgium, FAST-0505I) in antagonism mode using conventional methods. Briefly, CHO-K1 cells expressing human recombinant 5-HT2A receptor grown to mid-log phase in culture media without antibiotics were detached with PBS-EDTA, centrifuged, and resuspended in medium without antibiotics buffer. 20,000 cells are distributed in a 96 well plate and incubated overnight at 37° C. with 5% CO2.
For antagonist testing, a reference agonist a-Me-5HT was added and fluorescence signal monitored for several minutes, followed by addition of 20 μl of assay buffer plus 20 μl of test compound or reference antagonist ketanserin, in each well. The plate was incubated for 60 min. at 37° C. with 5% CO2.
After addition of the lysis buffer containing IP1-d2 and anti-IP1 cryptate detection reagents, plates were incubated 1-hour at room temperature, and fluorescence ratios are measured according to the manufacturer specification, with the HTRF kit.

The target in assay [2] is T1, 5-HT2A. As to the kind of experiment: Serotonin 5-HT2A in vitro cellular IPOne agonism assay. The class given is cell-based. On the set-up: host or cells: CHO-K1. Conditions: CHO-K1 cells, 60 min. As for the experimental part:
Serotonin 5-HT2A In Vitro Cellular IPOne Agonism Assay. The 5-HT2A IPOne HTRF assay was performed at Epics Therapeutics S.A. (Belgium, FAST-0505I) using conventional methods. Briefly, CHO-K1 cells expressing human recombinant 5-HT2A receptor grown to mid-log phase in culture media without antibiotics were detached with PBS-EDTA, centrifuged, and resuspended in medium without antibiotics buffer. 20,000 cells are distributed in a 96 well plate and incubated overnight at 37° C. with 5% CO2.
For agonist testing, the medium was removed and 20 μl of assay buffer plus 20 μl of test compound or reference agonist were added in each well. The plate was incubated for 60 min. at 37° C. with 5% CO2.
After addition of the lysis buffer containing IP1-d2 and anti-IP1 cryptate detection reagents, plates were incubated 1-hour at room temperature, and fluorescence ratios were measured according to the manufacturer specification, with the HTRF kit.

Assay [3] addresses T1, 5-HT2A. As to the kind of experiment: Serotonin 5-HT2A in vitro radioligand binding competition assay. On the set-up: purchased Epics Therapeutics S.A. (Belgium), contract assay FAST-0505B; host or cells: membrane extracts. Conditions: [3H]-DOI radiotracer, membrane extracts, read-out: 5HT2A R[…] ACTIVITY
Here is the method:
Serotonin 5-HT2A In Vitro Radioligand Binding Competition Assay. The 5-HT2A radioligand binding competition assay was performed at Epics Therapeutics S.A. (Belgium, FAST-0505B) using conventional methods. Briefly, competition binding was performed in duplicate in the wells of a 96 well plate (Master Block, Greiner, 786201) containing binding buffer (optimized for each receptor), membrane extracts (amount of protein/well optimized for each receptor), radiotracer [^3H]-DOI (final concentration optimized for each receptor) and test compound. Nonspecific binding was determined by co-incubation with 200-fold excess of cold competitor. The samples were incubated in a final volume of 0.1 ml at a temperature and for a duration optimized for each receptor and then filtered over filter plates. Filters were washed six times with 0.5 ml of ice-cold washing buffer (optimized for each receptor) and 50 μl of Microscint 20 (Packard) were added in each well. The plates were incubated 15 min on an orbital shaker and then counted with a TopCount™ for 1 min/well.

T1 sequence (P28223 whole entry): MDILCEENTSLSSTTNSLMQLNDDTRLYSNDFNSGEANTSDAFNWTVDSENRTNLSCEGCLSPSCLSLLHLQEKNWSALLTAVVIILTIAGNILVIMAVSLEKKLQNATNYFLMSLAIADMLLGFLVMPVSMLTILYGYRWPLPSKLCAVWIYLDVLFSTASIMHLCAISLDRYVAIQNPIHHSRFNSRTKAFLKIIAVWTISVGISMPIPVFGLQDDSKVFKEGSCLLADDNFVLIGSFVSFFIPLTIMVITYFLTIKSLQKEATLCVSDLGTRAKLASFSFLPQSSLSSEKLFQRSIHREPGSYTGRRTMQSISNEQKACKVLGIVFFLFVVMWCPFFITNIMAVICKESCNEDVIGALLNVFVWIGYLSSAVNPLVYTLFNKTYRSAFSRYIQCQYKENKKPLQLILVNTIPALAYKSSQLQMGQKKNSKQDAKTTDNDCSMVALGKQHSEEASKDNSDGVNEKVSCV

With `c1ccc2c3c(sc2c1)CCN(C1CCC1)CC3` [Compound 73, 3-cyclobutyl-2,3,4,5-tetrahydro-1H-benzo[4,5]thieno[2,3-d]azepine], the IC50 in assay [1] and in assay [3] (benzothiophenes) was 101 to 1000 nM throughout. For the same molecule, in assay [2] (benzothiophenes), the EC50 (in general, the midpoint of the concentration-response curve) was above 10000 nM.
As for `c1ccc(COc2cccc3oc4c(c23)CCNCC4)cc1` [Compound 47, 10-(benzyloxy)-2,3,4,5-tetrahydro-1H-benzofuro[2,3-d]azepine], the IC50 in assay [1] and in assay [3] (benzofurans) was 101 to 1000 nM throughout. Also, in assay [2] (benzofurans), the concentration giving a half-maximal response (EC50) was 1000 to 10000 nM.
As to `c1ccc2c3c(oc2c1)CCN(C1CCC1)CC3` [Compound 28, 3-cyclobutyl-2,3,4,5-tetrahydro-1H-benzofuro[2,3-d]azepine], the IC50 in assay [1] was above 10000 nM; in assay [3] (benzofurans), 1000 to 10000 nM. Further, the EC50 in assay [2] (benzofurans) is above 10000 nM.
In the case of `CN1CCc2oc3cc(F)ccc3c2CC1` [Compound 23, 8-fluoro-3-methyl-2,3,4,5-tetrahydro-1H-benzofuro[2,3-d]azepine], the IC50 in assay [1] and in assay [3] (benzofurans) was 101 to 1000 nM throughout. The concentration for a half-maximal effect (EC50) in assay [2] (benzofurans) is 101 to 1000 nM.
As for `CN1CCc2sc3cc(F)ccc3c2CC1` [Compound 33, 8-fluoro-3-methyl-2,3,4,5-tetrahydro-1H-benzo[4,5]thieno[2,3-d]azepine], the IC50 in assay [1] and in assay [3] (benzothiophenes) was 10 to 100 nM throughout. For the same molecule, the concentration giving a half-maximal response (EC50) in assay [2] (benzothiophenes) was in the range of 10 to 100 nM.
For the molecule `FC(F)(F)Oc1cccc2sc3c(c12)CCN(C1CCC1)CC3` [Compound 68, 3-cyclobutyl-10-(trifluoromethoxy)-2,3,4,5-tetrahydro-1H-benzo[4,5]thieno[2,3-d]azepine], the half-maximal effective concentration (EC50) in assay [2] (benzothiophenes) lay within 1000 to 10000 nM. In addition, the IC50 in assay [3] (benzothiophenes) fell in the range of 1000 to 10000 nM.
In assay [2] (benzofurans), `COc1ccc2c3c(oc2c1)CCCN(CC(F)(F)F)C3` [Compound 11, 8-methoxy-2-(2,2,2-trifluoroethyl)-2,3,4,5-tetrahydro-1H-benzofuro[3,2-c]azepine] gave an EC50 above 10000 nM. The IC50 in assay [3] (benzofurans) was above 10000 nM.
In assay [2] (benzothiophenes), `FC(F)(F)Oc1cccc2sc3c(c12)CCNCC3` [Compound 67, 10-(trifluoromethoxy)-2,3,4,5-tetrahydro-1H-benzo[4,5]thieno[2,3-d]azepine] registered an EC50 of 10 to 100 nM. Also, the IC50 in assay [3] (benzothiophenes) is 10 to 100 nM.
`CN1CCc2oc3cc(OC(F)(F)F)ccc3c2CC1` [Compound 40, 3-methyl-8-(trifluoromethoxy)-2,3,4,5-tetrahydro-1H-benzofuro[2,3-d]azepine] came in with a concentration for a half-maximal effect (EC50) in assay [2] (benzofurans) above 10000 nM. In addition, in assay [3] (benzofurans), the IC50 lay in the range of 1000 to 10000 nM.
Take `COc1ccc2c3c(oc2c1)CCNCC3` [Compound 27, 8-methoxy-2,3,4,5-tetrahydro-1H-benzofuro[2,3-d]azepine]: the concentration giving a half-maximal response (EC50) in assay [2] (benzofurans) is 1000 to 10000 nM. Further, the IC50 in assay [3] (benzofurans) is 1000 to 10000 nM.
For the molecule `CN1CCCc2oc3cc(C(F)(F)F)ccc3c2C1` [Compound 52, 2-methyl-8-(trifluoromethyl)-2,3,4,5-tetrahydro-1H-benzofuro[3,2-c]azepine], the EC50 in assay [2] (benzofurans) is above 10000 nM. Moreover, the IC50 in assay [3] (benzofurans) is 1000 to 10000 nM.
For `COc1cccc2oc3c(c12)CCNCC3` [Compound 16, 10-methoxy-2,3,4,5-tetrahydro-1H-benzofuro[2,3-d]azepine], in that order: 10 to 100 nM and 101 to 1000 nM.
In turn, `CN1CCCc2oc3cccc(OCc4ccccc4)c3c2C1` [Compound 55, 10-(benzyloxy)-2-methyl-2,3,4,5-tetrahydro-1H-benzofuro[3,2-c]azepine] came in with an EC50 in assay [2] (benzofurans) above 10000 nM. The IC50 in assay [3] (benzofurans) is 10 to 100 nM.
As for `COc1ccc2c3c(sc2c1)CCN(CC(F)(F)F)CC3` [Compound 70, 8-methoxy-3-(2,2,2-trifluoroethyl)-2,3,4,5-tetrahydro-1H-benzo[4,5]thieno[2,3-d]azepine], the half-maximal effective concentration (EC50) in assay [2] (benzothiophenes) was above 10000 nM. The IC50 in assay [3] (benzothiophenes) is above 10000 nM.
For the molecule `Fc1ccc2c3c(sc2c1)CCN(CC(F)(F)F)CC3` [Compound 71, 8-fluoro-3-(2,2,2-trifluoroethyl)-2,3,4,5-tetrahydro-1H-benzo[4,5]thieno[2,3-d]azepine], the 50% effective concentration (EC50) in assay [2] (benzothiophenes) was above 10000 nM. The IC50 in assay [3] (benzothiophenes) was above 10000 nM.
`c1ccc(COc2ccc3c4c(oc3c2)CCNCC4)cc1` [Compound 45, 8-(benzyloxy)-2,3,4,5-tetrahydro-1H-benzofuro[2,3-d]azepine] came in with an EC50 in assay [2] (benzofurans) of 1000 to 10000 nM. Moreover, the IC50 in assay [3] (benzofurans) fell in the range of 1000 to 10000 nM.
`c1ccc(COc2ccc3c4c(oc3c2)CCCNC4)cc1` [Compound 50, 8-(benzyloxy)-2,3,4,5-tetrahydro-1H-benzofuro[3,2-c]azepine] came in with an EC50 in assay [2] (benzofurans) above 10000 nM. Also, in assay [3] (benzofurans), the IC50 is 1000 to 10000 nM.
In assay [2] (benzofurans), `c1ccc2c3c(oc2c1)CCCN(C1CCC1)C3` [Compound 20, 2-cyclobutyl-2,3,4,5-tetrahydro-1H-benzofuro[3,2-c]azepine] showed an EC50 above 10000 nM. In assay [3] (benzofurans), the IC50 was above 10000 nM.
The molecule `Fc1cccc2oc3c(c12)CN(CC(F)(F)F)CCC3` [Compound 5, 10-fluoro-2-(2,2,2-trifluoroethyl)-2,3,4,5-tetrahydro-1H-benzofuro[3,2-c]azepine] registered an EC50 in assay [2] (benzofurans) above 10000 nM. Also, the IC50 in assay [3] (benzofurans) was above 10000 nM.
For `Fc1cccc2oc3c(c12)CCN(C1CCC1)CC3` [Compound 2, 3-cyclobutyl-10-fluoro-2,3,4,5-tetrahydro-1H-benzofuro[2,3-d]azepine], the concentration giving a half-maximal response (EC50) in assay [2] (benzofurans) was in the range of 1000 to 10000 nM. In addition, the IC50 in assay [3] (benzofurans) was 1000 to 10000 nM.
As for `Fc1ccc2c3c(oc2c1)CCNCC3` [Compound 24, 8-fluoro-2,3,4,5-tetrahydro-1H-benzofuro[2,3-d]azepine], the EC50 in assay [2] (benzofurans) was 10 to 100 nM. Also, the IC50 in assay [3] (benzofurans) lay within 101 to 1000 nM.
Molecule `CN1CCc2oc3cc(OCc4ccccc4)ccc3c2CC1` [Compound 41, 8-(benzyloxy)-3-methyl-2,3,4,5-tetrahydro-1H-benzofuro[2,3-d]azepine] yielded a concentration for a half-maximal effect (EC50) in assay [2] (benzofurans) above 10000 nM. Besides, the IC50 in assay [3] (benzofurans) lay within 101 to 1000 nM.
The molecule `FC(F)(F)CN1CCc2oc3ccccc3c2CC1` [Compound 29, 3-(2,2,2-trifluoroethyl)-2,3,4,5-tetrahydro-1H-benzofuro[2,3-d]azepine] gave a half-maximal effective concentration (EC50) in assay [2] (benzofurans) above 10000 nM. For the same molecule, in assay [3] (benzofurans), the IC50 is above 10000 nM.
In the case of `CN1CCCc2oc3cc(F)ccc3c2C1` [Compound 9, 8-fluoro-2-methyl-2,3,4,5-tetrahydro-1H-benzofuro[3,2-c]azepine], the EC50 in assay [2] (benzofurans) was in the range of 1000 to 10000 nM. In addition, the IC50 in assay [3] (benzofurans) was 1000 to 10000 nM.
For the molecule `FC(F)(F)CN1CCCc2oc3ccccc3c2C1` [Compound 13, 2-(2,2,2-trifluoroethyl)-2,3,4,5-tetrahydro-1H-benzofuro[3,2-c]azepine], the EC50 in assay [2] (benzofurans) is above 10000 nM. Moreover, the IC50 in assay [3] (benzofurans) is above 10000 nM.
The molecule `CN1CCc2oc3cc(C(F)(F)F)ccc3c2CC1` [Compound 39, 3-methyl-8-(trifluoromethyl)-2,3,4,5-tetrahydro-1H-benzofuro[2,3-d]azepine] returned an EC50 in assay [2] (benzofurans) above 10000 nM. In addition, in assay [3] (benzofurans), the IC50 was in the range of 1000 to 10000 nM.
As to `c1ccc2c3c(sc2c1)CCNCC3` [Compound 65, 2,3,4,5-tetrahydro-1H-benzo[4,5]thieno[2,3-d]azepine], the EC50 in assay [2] (benzothiophenes) was 101 to 1000 nM. Further, the IC50 in assay [3] (benzothiophenes) was 10 to 100 nM.
Molecule `Fc1cccc2oc3c(c12)CN(C1CCC1)CCC3` [Compound 1, 2-cyclobutyl-10-fluoro-2,3,4,5-tetrahydro-1H-benzofuro[3,2-c]azepine] came in with a concentration giving a half-maximal response (EC50) in assay [2] (benzofurans) above 10000 nM. In addition, in assay [3] (benzofurans), the IC50 was above 10000 nM.
In assay [2] (benzothiophenes), `FC(F)(F)Oc1ccc2c3c(sc2c1)CCNCC3` [Compound 66, 8-(trifluoromethoxy)-2,3,4,5-tetrahydro-1H-benzo[4,5]thieno[2,3-d]azepine] showed a concentration giving a half-maximal response (EC50) of 101 to 1000 nM. In assay [3] (benzothiophenes), the IC50 lay in the range of 101 to 1000 nM.
For the molecule `COc1ccc2c3c(oc2c1)CCN(C1CCC1)CC3` [Compound 25, 3-cyclobutyl-8-methoxy-2,3,4,5-tetrahydro-1H-benzofuro[2,3-d]azepine], in assay [2] (benzofurans), the concentration for a half-maximal effect (EC50) was above 10000 nM. In assay [3] (benzofurans), the IC50 is above 10000 nM.
